Laboratory results: patent US12178800B2, “Sulforaphane-melatonin-like compound” (priority 2018, dated 2024)

Key:
ICR mice = assay: X-ray-induced oral mucositis in mice: survival and behaviour; format: in vivo
Experimental: In a second example for illustrating embodiments of the present invention, six-week-old ICR mice (30-40 g) obtained from Institute of Animal Breeding and Genetics, University of Gottingen, Germany were used. The animals were housed in a room maintained at 22±2° C. under a 12-h light-dark cycle with lights on at 7:00 a.m. Mice were fed a standard rodent diet and had free access to water. In addition, no antibiotic supplements were used. All animal experiments were performed in compliance to The German Animal Welfare Act. The mice (n=20 per group) were anesthetized (pentobarbital sodium, 50 mg/kg body weight, i.p.) and then irradiated. Mice had to be irradiated only at the tip of the tongue, so the rest of the body was shielded with a lead device (thickness, 0.5 mm). The tongue was fixed to the outer surface of the lead device using adhesive tape and irradiated with a single radiation dose of 20 Gy. Radiation was generated using a 150 kV potential (20 mA) X-ray source at a focal distance of 350 mm and beam-hardened by a 1.0-mm aluminum filtration system (MBR-1520R-3; Hitachi, Tokyo, Japan). The dose rate was 5.1 Gy/min. The 6OHM-6-HITC compound was dissolved in a small volume of 1 M NaOH solution. The pH was adjusted to 7 with 1 M HCL. […] The body weight was recorded and the tongues were observed daily after irradiation. […]

mouse tongues = assay: X-ray-induced oral mucositis in mice: oral mucositis score; format: in vivo, ICR mice
Experimental: In a second example for illustrating embodiments of the present invention, six-week-old ICR mice (30-40 g) obtained from Institute of Animal Breeding and Genetics, University of Gottingen, Germany were used. The animals were housed in a room maintained at 22±2° C. under a 12-h light-dark cycle with lights on at 7:00 a.m. Mice were fed a standard rodent diet and had free access to water. In addition, no antibiotic supplements were used. All animal experiments were performed in compliance to The German Animal Welfare Act. The mice (n=20 per group) were anesthetized (pentobarbital sodium, 50 mg/kg body weight, i.p.) and then irradiated. Mice had to be irradiated only at the tip of the tongue, so the rest of the body was shielded with a lead device (thickness, 0.5 mm). The tongue was fixed to the outer surface of the lead device using adhesive tape and irradiated with a single radiation dose of 20 Gy. Radiation was generated using a 150 kV potential (20 mA) X-ray source at a focal distance of 350 mm and beam-hardened by a 1.0-mm aluminum filtration system (MBR-1520R-3; Hitachi, Tokyo, Japan). The dose rate was 5.1 Gy/min. The 6OHM-6-HITC compound was dissolved in a small volume of 1 M NaOH solution. The pH was adjusted to 7 with 1 M HCL. The concentration was adjusted to 3 mg/mL or 15 mg/mL in 0.9% (physiologic) saline solution. The body weight was recorded and the tongues were observed daily after irradiation. 6OHM-6-HITC was injected via the intraperitoneal route 30 min before irradiation. The control group was irradiated but without administering the 6OHM-6-HITC compound.
The scoring of oral mucositis was based on a modification of the method of Sonis et al. To assess the severity of oral mucositis, mice were anesthetized with isoflurane every day. The oral mucositis score was: 0=normal; 1=partial hyperemia, erythema and swelling; 2=overall hyperemia, erythema and swelling; 3=epidermolysis, hyperemia and erythema; 4=extensive epidermolysis and bleeding; 5=bleeding and abscesses. Myeloperoxidase (MPO) activity is a marker for neutrophils in inflamed tissue. MPO activity was measured in mouse tongues using a modification of the method of Chen et al. After mice had been killed by cervical dislocation 12 days after irradiation, tongue samples (n=10 per group) were removed and stored at −70° C. until required for assay. […] MPO activity was measured using a Microplate Reader (NJ-2300; Biotec, Tokyo, Japan) at 450 nm. MPO activity was calculated by measuring the slope of absorbance calibrated using MPO standards (Wako Biochemicals) and expressed as MPO/g tongue. […] TBARS levels were measured using the Microplate Reader (Biotec) at 540 nm. TBARS levels were calculated by measuring the slope of absorbance calibrated using TBARS standards and expressed as TBARS/g tongue. […]

COc1cc2c(CCCCN=C=S)c[nH]c2cc1O [6OHM-6-HITC]
behavioral disorders (ICR mice; 300 mg/kg i.p.): not observed
survival after X-ray irradiation (ICR mice; 30 and 300 mg/kg i.p. 30 min before 20 Gy irradiation of the tongue): significant difference in survival was not found
total oral mucositis score between day-0 and day-12 vs. control group (mouse tongues; 30 mg/kg i.p.): significantly lower
total oral mucositis score between day-0 and day-12 vs. control group (mouse tongues; 300 mg/kg i.p.): significantly lower
oral mucositis score vs. control group (mouse tongues; 300 mg/kg i.p., day-10): significantly lower
oral mucositis score vs. control group (mouse tongues; 300 mg/kg i.p., day-12): significantly lower
